According to PMC10178562, “Synthesis and Characterisation of Fluorescent Novel Pt(II) Cyclometallated Complexes with Anticancer Activity” (International Journal of Molecular Sciences, 2023):

Legend:
U87 Glioblastoma = test: MTT cytotoxicity U87; type: cell-based; conditions: read-out: GI50 Concentration That Inhibits Cell Growth by 50%, 72 h
Protocol: (§1) Cytotoxicity assay studies were performed at Calvary Mater Newcastle Hospital, Waratah, NSW, Australia. In vitro studies were performed according to described methods. Complexes were prepared in DMSO as stock treatment (30 mM) solutions and stored at −20 °C. All cell lines were cultured in a humidified atmosphere with 5% CO2 at 37 °C and maintained in Dulbecco’s modified eagle’s medium (DMEM; Trace Biosciences, Melbourne, Australia) supplemented with 10% foetal bovine serum, sodium bicarbonate (10 mM), penicillin (100 IU mL^−1), streptomycin (100 μg mL^−1), and L-glutamine (4 mM). The non-cancer MCF10A cell line was cultured in DMEM.F12 (1:1) cell culture media (Composition in SI). Cytotoxicity was determined by plating cells in duplicate in 100 μL medium at a density of 2500–4000 cells per well in 96-well plates. After 24 h, when cells were in logarithmic growth, media (100 μL) with or without the test agent were added to each well (day 0). After 72 h of exposure, growth inhibitory effects were evaluated by MTT (3-[4,5-dimethylthiazol-2-yl]-2,5-diphenyltetrazolium bromide) assay, and absorbance was read at 540 nm. […] These calculations were based on the difference between the optical density values on day 0 and those at the end of drug exposure.

HT29 Colon = test: MTT cytotoxicity HT29; type: cell-based; conditions: read-out: GI50 Concentration That Inhibits Cell Growth by 50%, 72 h
Protocol: as §1

A431 Skin = test: MTT cytotoxicity A431; type: cell-based; conditions: read-out: GI50 Concentration That Inhibits Cell Growth by 50%, 72 h
Protocol: as §1

MCF10A Breast (normal) = test: MTT cytotoxicity MCF10A (non-cancer); type: cell-based; conditions: read-out: GI50 Concentration That Inhibits Cell Growth by 50%, 72 h
Protocol: as §1

[1] = Lipophilicity by RP-HPLC (log Kw); type: physicochemical; conditions: isocratic 70 to 90% solvent B
Protocol: Lipophilicity was calculated using a RP-HPLC method to determine log Kw, whereby a stock solution was injected at different isocratic ratios ranging from 70 to 90% solvent B (organic) at a flow rate of 1 mL min^−1. These experiments were undertaken on an Agilent Technologies 1260 Infinity machine equipped with a Phenomenex Onyx™ Monolithic C18 reverse phase column (100 × 4.6 mm, 130 Å). The mobile phase comprised 0.06% TFA in water (solvent A) and 0.06% TFA in ACN:H2O (90:10, solvent B). The dead zero volume time was determined using potassium iodide as an external dead volume marker, further details are provided in the Supplementary Materials.

calf thymus DNA (ctDNA) [2] = test: Direct ctDNA binding by inherent fluorescence (Benesi–Hildebrand); conditions: inherent fluorescence method, 10 µM CMC, buffer pH 7.0
Protocol: ctDNA experiments utilising the inherent fluorescence of the complexes were completed in addition to the FID experiments. […] The values of Ka and n for the compounds are listed in Table 4, where R^2 is the linear correlation coefficient for Ka.
The direct fluorescent measurements of DNA binding constants were also obtained with the same fluorimeter using 10 mm path length quartz cells. A 0.065 M stock solution of ctDNA was titrated into a 10 µM solution of CMCs 1–3 in a 40 mM K2HPO4/KH2PO, 10 mM KCl buffer at pH 7.0. The fluorescence was measured from 550 to 750 nm excited at 320 nm inverting 4 times and waiting 3 min between the addition of ctDNA and scan time to allow adequate time for the CMCs to interact with the DNA.

Du145 Prostate = test: MTT cytotoxicity Du145; type: cell-based; conditions: read-out: GI50 Concentration That Inhibits Cell Growth by 50%, 72 h
Protocol: as §1

MCF-7 Breast = test: MTT cytotoxicity MCF-7; type: cell-based; conditions: for GI50: read-out: GI50 Concentration That Inhibits Cell Growth by 50%, MCF-7 Breast, 72 h, MTT
Protocol: as §1

ADDP Cis Res Ovarian = test: MTT cytotoxicity ADDP; type: cell-based; conditions: read-out: GI50 Concentration That Inhibits Cell Growth by 50%, 72 h
Protocol: as §1

BE2-C Neuroblastoma = test: MTT cytotoxicity BE2-C; type: cell-based; conditions: read-out: GI50 Concentration That Inhibits Cell Growth by 50%, 72 h
Protocol: as §1

H460 Lung = test: MTT cytotoxicity H460; type: cell-based; conditions: read-out: GI50 Concentration That Inhibits Cell Growth by 50%, 72 h
Protocol: as §1

A2780 Ovarian = test: MTT cytotoxicity A2780; type: cell-based; conditions: read-out: GI50 Concentration That Inhibits Cell Growth by 50%, 72 h
Protocol: as §1

SJ-G2 Glioblastoma = test: MTT cytotoxicity SJ-G2; type: cell-based; conditions: read-out: GI50 Concentration That Inhibits Cell Growth by 50%, 72 h
Protocol: as §1

MIA Pancreas = test: MTT cytotoxicity MIA; type: cell-based; conditions: read-out: GI50 Concentration That Inhibits Cell Growth by 50%, 72 h
Protocol: as §1

calf thymus DNA (ctDNA) [3] = test: Fluorescent intercalator displacement (FID) assay, EtBr-saturated ctDNA; type: binding; parameters: Kq (bimolecular quenching constant) / KSV (Stern–Volmer quenching constant): unit not given here; conditions: buffer pH 7.0
Protocol: To investigate the potential mechanisms of action of complexes 1–3, fluorescent intercalator displacement (FID) experiments and DNA binding experiments utilizing the innate fluorescence were undertaken. For FID experiments, the concentration of a fluorescent intercalator, in this case ethidium bromide (EtBr), that is displaced by the complex under investigation is determined. In a solution of calf-thymus DNA (ctDNA) where is saturated with EtBr, the change in fluorescence is monitored as the complex is titrated into this solution. Once the decrease in fluorescence has stopped, the concentration of the complex allows us to calculate the stoichiometric point of binding, the change in fluorescence at the point of binding (ΔFsat), the binding coefficient (Ka), bimolecular quenching constant (Kq), Stern–Volmer quenching constant (Ksv), the binding constant for fluorescence (KF), and the molar equivalents of CMC (n) at the point of intersection is the experimental stoichiometry of binding. (1) [ctDNA]Tn−∆Fx/∆Fsat=[CMC] (2) ∆Fx/∆Fsat1/n=fraction of ctDNA−CMC complex (3) 1−∆Fx/∆Fsat1/n=fraction free CMC
The fluorescence at 601 nm for each titration was plotted, and the KF and n could be calculated from the intercept and slope, respectively. (4) F0/F=1+Kqτ0CMC=1+KSV[CMC] where F0 is the fluorescence of the binding site in the absence of quencher (CMC), F is the fluorescence of the site containing the CMC, and t0 is the lifetime of the chromophore in the absence of the quencher (Ɛ476 = 5680 for ethidium-bound DNA).
A plot of F0/F against [CMC] using experimental values allows for the determination of Kq and KSV from the slope. (5) log10F0−F/F=nlog10CMC+log10KF where n is the number of ethidium ligands that are displaced per CMC. […] A plot of log10[(F0 − F)/F)] against log10[CMC] is used to determine KF and n from the intercept and slope, respectively. Experiments were performed in triplicate for each CMC.
Fluorescent intercalator displacement (FID) assays were obtained using the same instrument and by using 10 mm quartz cells. Stock solutions CMCs 1–3 (30 µM) were titrated into a solution of […] ethidium bromide, 150 µM ctDNA in a 40 mM K2HPO4/KH2PO, and 10 mM KCl buffer at pH 7.0. The fluorescence was measured from 550 to 750 nm excited at 480 nm and inverting 4 times and waiting 3 min between the addition of ctDNA and scan time to allow adequate time for the CMCs to interact with the DNA.

Compound | GI50 (U87 Glioblastoma) | GI50 (HT29 Colon) | GI50 (A431 Skin) | GI50 (MCF10A Breast (normal)) | Ka (binding constant) (calf thymus DNA (ctDNA) [2]) | GI50 (Du145 Prostate) | SI = GI50 for normal cells/GI50 for cancer cells (MCF10A/MCF-7) (MCF-7 Breast) | GI50 (MCF-7 Breast) | GI50 (ADDP Cis Res Ovarian) | GI50 (BE2-C Neuroblastoma) | GI50 (H460 Lung) | GI50 (A2780 Ovarian) | GI50 (SJ-G2 Glioblastoma) | GI50 (MIA Pancreas) | KSV (Stern–Volmer quenching constant) (calf thymus DNA (ctDNA) [3]) | Ka (binding coefficient) (calf thymus DNA (ctDNA) [3]) | Kf (binding constant for fluorescence) (calf thymus DNA (ctDNA) [3]) | Kq (bimolecular quenching constant) (calf thymus DNA (ctDNA) [3]) | Point of Experimental Stoichiometry of Binding (calf thymus DNA (ctDNA) [3]) | n (number of ethidium ligands displaced per CMC) (calf thymus DNA (ctDNA) [3]) | further results
[Pt(Bequ)(RRDACH)]+ [Complex 2b] | 4.3 ± 0.3 µM | 30 ± 2.3 µM | 3.4 ± 0.3 µM | 10.3 ± 1.9 µM | 1.39 × 10^4 | 20 ± 2.7 µM | 1.33 | 7.7 ± 2 µM | 19 ± 3 µM | 48 ± 1.7 µM | 8.1 ± 1 µM | 5 ± 0.3 µM | 10 ± 2.2 µM | 8.1 ± 1.6 µM | 1.662 | 1.59 × 10^4 | 3.78 | 0.271 | 2.47 | 0.668 | Lipophilicity × 10^−2 (log Kw) [1]: 3.97 ± 0.053 × 10^−2; ΔFsat (change in fluorescence at the point of binding) (calf thymus DNA (ctDNA) [3]): 89.01
[Pt(Pepy)(SSDACH)]+ [Complex 1a] | 5.3 ± 0.3 µM | 13 ± 1 µM | 4.2 ± 0.5 µM | 6.4 ± 0.5 µM | 2.20 × 10^4 | 9 ± 2 µM | 0.76 | 8.4 ± 2 µM | 5.1 ± 0.3 µM | 34 ± 7.5 µM | 5.8 ± 0.4 µM | 12 ± 0.7 µM | 11 ± 0.7 µM | 8 ± 1.6 µM | 1.988 | 2.75 × 10^4 | 4.35 | 0.329 | 2.84 | 0.778 | ΔFsat (change in fluorescence at the point of binding) (calf thymus DNA (ctDNA) [3]): 83.82
Cc1c(C)c2cccnc2c2ncccc12.N[C@H]1CCCC[C@@H]1N.[Pt] [Complex 56MESS, reference compound] | 0.076 ± 0.014 µM | – | 0.051 ± 0.021 µM | 0.032 ± 0.007 µM | – | 0.007 ± 0.002 µM | 0.64 | 0.05 ± 0.02 µM | – | 0.1 ± 0.016 µM | 0.037 ± 0.009 µM | 0.03 ± 0.004 µM | 0.074 ± 0.018 µM | 0.015 ± 0.002 µM | – | – | – | – | – | – | –
N.N.[Cl][Pt][Cl] [Cisplatin, cisplatin, reference compound] | 3.8 ± 1.1 µM | 11.3 ± 1.9 µM | 2.4 ± 0.3 µM | – | – | 1.2 ± 0.1 µM | – | 6.5 ± 0.8 µM | – | 1.9 ± 0.2 µM | 0.9 ± 0.2 µM | 1 ± 0.1 µM | 0.4 ± 0.1 µM | 7.5 ± 1.3 µM | – | – | – | – | – | – | –
